The structures appear in SMILES notation. Read-outs that look alike come from different tables or passages of the source.

The nature of data set [1]: logP by HPLC on reversed-phase columns (C 18), EEC Directive 79/831 Annex V.A8. Format: physicochemical. As to conditions: reversed-phase C18 HPLC column. How it is done: Calibration is carried out using unbranched alkan-2-ones (having from 3 to 16 carbon atoms) with known log P values (the log P values are determined by the retention times using linear interpolation between two successive alkanones).

The test system of data set [2] is larvae of the mustard beetle (Phaedon cochleariae). Nature of the data set: Phaedon cochleariae spray test (PHAECO). Conditions: Phaedon cochleariae, 168 h, read-out: effect (beetle larvae killed).
Data set [3] concerns cattle ticks (Boophilus microplus). The experiment in a line: Boophilus microplus injection test (BOOPMI Inj). Format: in vivo. As to conditions: Rhipicephalus microplus, 168 h, read-out: efficacy (laying of fertile eggs). As for the experimental part:
Solvent: dimethyl sulfoxide
1 μl of the active compound solution is injected into the abdomen of 5 engorged adult female cattle ticks (Boophilus microplus). The animals are transferred into dishes and kept in a climate-controlled room.
The activity is assessed after 7 days by laying of fertile eggs. Eggs whose fertility is not visible from the outside are stored in a climate-controlled cabinet until the larvae hatch after about 42 days. An efficacy of 100% means that none of the ticks has laid any fertile eggs; 0% means that all eggs are fertile.

Data set [4] deals with greenhouse red spider mite (Tetranychus urticae). The experiment in a line: Tetranychus urticae spray test, OP-resistant (TETRUR), bean leaf disks. Format: in vivo. Conditions: Tetranychus urticae, foliar, 144 h, read-out: efficacy (spider mites killed). As for the experimental part:
After 6 days, the effect in % is determined.

[5] abbreviates: pH 2.7, [a] LC-MS, acidic range, pH 2.7, 0.1% aqueous formic acid/acetonitrile, read-out: logP(HCOOH).
Setting [6] is: pH 7.8, [b] LC-MS, neutral range, pH 7.8, 0.001 molar aqueous ammonium bicarbonate/acetonitrile, read-out: logP(neutral).
Setting [7] is: application rate 500 g/ha, after 6 days.
[8] abbreviates: application rate 20 μg/animal, injection, after 7 days.

With `Cc1cc(F)c(/N=C(\N)C2(F)CC2)cc1SCC(F)(F)F` [Ia-27, 1-Fluoro-N′-{2-fluoro-4-methyl-5-[(2,2,2-trifluoroethyl)sulfanyl]phenyl}cyclopropanecarboximidamide], in data set [1] (setting [5]), the chromatographic logP was found to be 1.2. The pest or weed control at 500 g/ha in data set [2] and in data set [4] was 100% throughout. For the same compound, the pest or weed control at 0.02 mg in data set [3] is 100%.
For the compound `Cc1cc(F)c(/N=C(/Nc2ccc(Cl)cc2)C(F)(F)F)cc1SCC(F)(F)F` [Ia-31], the chromatographic logP in data set [1] (setting [5]) turned out to be 4.73; in data set [1] (setting [6]), 4.67. Further, the pest or weed control at 500 g/ha in data set [2] and in data set [4] (setting [7]) was 100% throughout.
In the case of `Cc1cc(F)c(/N=C2\CCCN2C)cc1SCC(F)(F)F` [Ia-39], the pest or weed control at 0.02 mg in data set [3] (setting [8]) was 100%. The pest or weed control at 500 g/ha in data set [4] (setting [7]) stood at 100%.
For the compound `CN/C(=N\c1cc(SCC(F)(F)F)c(C)cc1F)c1cccc(Cl)c1` [Ia-44], the pest or weed control at 0.02 mg in data set [3] (setting [8]) was 100%. In data set [4] (setting [7]), the pest or weed control at 500 g/ha was 100%.
Consider `Cc1cc(F)c(/N=C(/Nc2ccc(C(F)(F)F)cc2)C(F)(F)F)cc1SCC(F)(F)F` [Ia-45], for which the chromatographic logP in data set [1] (setting [5]) was found to be 4.82; in data set [1] (setting [6]), 4.71. Further, the pest or weed control at 500 g/ha in data set [2] came to 100%; in data set [4] (setting [7]), 80%.
Consider `Cc1cc(F)c(/N=C(/c2ccc(Cl)cc2)N(C)C)cc1SCC(F)(F)F` [Ia-50], for which the pest or weed control at 0.02 mg in data set [3] (setting [8]) came out at 100%. For the same compound, the pest or weed control at 500 g/ha in data set [4] (setting [7]) amounted to 100%.
Consider `Cc1cc(C)c(SCC(F)(F)F)cc1/N=C(\N)c1cccnc1` [Ia-66], for which the pest or weed control at 0.02 mg in data set [3] (setting [8]) amounted to 100%. The pest or weed control at 500 g/ha in data set [4] (setting [7]) amounted to 100%.
Consider `CN/C(=N\c1cc(SCC(F)(F)F)c(C)cc1F)c1ccncc1` [Ia-80], for which the pest or weed control at 0.02 mg in data set [3] (setting [8]) amounted to 100%. For the same compound, the pest or weed control at 500 g/ha in data set [4] (setting [7]) is 100%.
With `Cc1cc(F)c(/N=C(\N)C(F)(F)Cl)cc1SCC(F)(F)F` [Ia-115], the pest or weed control at 500 g/ha in data set [2] and in data set [4] (setting [7]) was 100% each time. Besides, the pest or weed control at 0.02 mg in data set [3] (setting [8]) was determined as 100%.
As to `Cc1cc(F)c(/N=C(\N)C2(C#N)CC2)cc1SCC(F)(F)F` [Ia-118], the pest or weed control at 500 g/ha in data set [2] was 100%; in data set [4] (setting [7]) it was 90%. For the same compound, the pest or weed control at 0.02 mg in data set [3] (setting [8]) is 100%.
Turning to `Cc1cc(F)c(/N=C(\c2cccc(F)c2)N(C)C)cc1SCC(F)(F)F` [Ia-120], the pest or weed control at 0.02 mg in data set [3] (setting [8]) was 100%. For the same compound, the pest or weed control at 500 g/ha in data set [4] (setting [7]) is 100%.
With `Cc1cc(F)c(/N=C(\c2ccc(Cl)s2)N(C)C)cc1SCC(F)(F)F` [Ia-149, 5-Chloro-N′-{2-fluoro-4-methyl-5-[(2,2,2-trifluoroethyl)sulfanyl]phenyl}-N,N-dimethylthiophene-2-carboximidamide], the chromatographic logP was determined as 2.11 in data set [1] (setting [5]) and 4.89 in data set [1] (setting [6]). Moreover, the pest or weed control at 500 g/ha came out at 100% in data set [2] and 90% in data set [4] (setting [7]).
The corresponding values for `Cc1cc(F)c(/N=C(\c2cccn2C)N(C)C)cc1SCC(F)(F)F` [Ia-162, N′-{2-Fluoro-4-methyl-5-[(2,2,2-trifluoroethyl)sulfanyl]phenyl}-N,N,1-trimethyl-1H-pyrrole-2-carboximidamide] are 1.67, 4.11, 100% and 100%.
For the compound `N/C(=N/c1ccc(Cl)c(SCC(F)(F)F)c1)C(F)(F)F` [Ia-204, N′-{4-Chloro-3-[(2,2,2-trifluoroethyl)sulfanyl]phenyl}-2,2,2-trifluoroethanimidamide], the chromatographic logP in data set [1] (setting [5]) and in data set [1] (setting [6]) was 3.1 each time. Further, the figures for the pest or weed control at 500 g/ha in data set [2] and in data set [4] (setting [7]) were 83% and 90%, respectively.
For `N/C(=N/c1cc([S@+]([O-])CC(F)(F)F)c(Cl)cc1Cl)C(F)(F)F` [Ib-17], the pest or weed control at 500 g/ha in data set [2] and in data set [4] (setting [7]) was 100% in each case. In addition, the pest or weed control at 0.02 mg in data set [3] (setting [8]) is 100%.
For `N/C(=N/c1cc([S+]([O-])CC(F)(F)F)c(Br)cc1Br)C(F)(F)F` (stereo not drawn) [Ib-18], the pest or weed control at 500 g/ha was 83% in data set [2] and 80% in data set [4] (setting [7]). The pest or weed control at 0.02 mg in data set [3] (setting [8]) is 100%.
For `Cc1cc(F)c(/N=C(\N)C2(F)CC2)cc1[S+]([O-])CC(F)(F)F` (stereo not drawn) [Ib-19, 1-Fluoro-N′-{2-fluoro-4-methyl-5-[(2,2,2-trifluoroethyl)sulfinyl]phenyl}cyclopropanecarboximidamide], in data set [3], the pest or weed control at 0.02 mg turned out to be 100%. For the same compound, the pest or weed control at 500 g/ha in data set [4] came out at 100%.
With `Cc1cc(F)c(/N=C2\CCCN2C)cc1[S+]([O-])CC(F)(F)F` (stereo not drawn) [Ib-20], the pest or weed control at 500 g/ha in data set [2] and in data set [4] (setting [7]) was 100% in each case. Also, the pest or weed control at 0.02 mg in data set [3] (setting [8]) turned out to be 100%.
Regarding `CN/C(=N/c1cc([S+]([O-])CC(F)(F)F)c(Br)cc1Br)C(F)(F)F` (stereo not drawn) [Ib-24], the pest or weed control at 0.02 mg in data set [3] (setting [8]) was found to be 80%. For the same compound, the pest or weed control at 500 g/ha in data set [4] (setting [7]) amounted to 100%.
With `Cc1cc(Cl)c(/N=C(\N)C(F)(F)C(F)(F)F)cc1[S+]([O-])CC(F)(F)F` (stereo not drawn) [Ib-35], the pest or weed control at 0.02 mg in data set [3] (setting [8]) is 100%. In addition, the pest or weed control at 500 g/ha in data set [4] (setting [7]) is 100%.
Consider `Cc1cc(F)c(/N=C(\N)C(F)(F)C(F)(F)Cl)cc1[S+]([O-])CC(F)(F)F` (stereo not drawn) [Ib-38], for which, in data set [3] (setting [8]), the pest or weed control at 0.02 mg was 100%. Also, in data set [4] (setting [7]), the pest or weed control at 500 g/ha amounted to 100%.
In the case of `Cc1cc(F)c(/N=C(\N)C(Cl)(Cl)Cl)cc1[S+]([O-])CC(F)(F)F` (stereo not drawn) [Ib-40], the pest or weed control at 0.02 mg in data set [3] (setting [8]) was 100%. In addition, the pest or weed control at 500 g/ha in data set [4] (setting [7]) stood at 100%.
Consider `Cc1cc(F)c(/N=C(/c2cccnc2)N(C)C)cc1[S+]([O-])CC(F)(F)F` (stereo not drawn) [Ib-47], for which the pest or weed control at 0.02 mg in data set [3] (setting [8]) was found to be 100%. The pest or weed control at 500 g/ha in data set [4] (setting [7]) was 100%.
With `Cc1cc(F)c(/N=C(\N)c2ccc(Cl)nc2)cc1[S+]([O-])CC(F)(F)F` (stereo not drawn) [Ib-48], the pest or weed control at 0.02 mg in data set [3] (setting [8]) stood at 100%. Moreover, in data set [4] (setting [7]), the pest or weed control at 500 g/ha was 100%.
On to `CN/C(=N\c1cc([S+]([O-])CC(F)(F)F)c(C)cc1F)c1ccccn1` (stereo not drawn) [Ib-58], for which the pest or weed control at 0.02 mg in data set [3] (setting [8]) was found to be 100%. The pest or weed control at 500 g/ha in data set [4] (setting [7]) amounted to 100%.
Consider `CN(C)/C(=N/c1cc([S+]([O-])CC(F)(F)F)c(Br)cc1F)C(F)(F)F` (stereo not drawn) [Ib-59], for which the pest or weed control at 0.02 mg in data set [3] (setting [8]) came out at 100%. Moreover, in data set [4] (setting [7]), the pest or weed control at 500 g/ha is 100%.
`Cc1cc(Cl)c(/N=C(/N)C(F)(F)F)cc1[S+]([O-])CC(F)(F)F` (stereo not drawn) [Ib-68]: the pest or weed control at 500 g/ha in data set [2] and in data set [4] (setting [7]) was 100% in each case. Further, the pest or weed control at 0.02 mg in data set [3] (setting [8]) worked out at 100%.
As for `Cc1cc(Cl)c([S+]([O-])CC(F)(F)F)cc1/N=C(\N)C(F)(F)F` (stereo not drawn) [Ib-85], the pest or weed control at 0.02 mg in data set [3] (setting [8]) is 100%. The pest or weed control at 500 g/ha in data set [4] (setting [7]) came out at 100%.
With `CN/C(=N\c1cc([S+]([O-])CC(F)(F)F)c(Cl)cc1Cl)c1ccc(Cl)nc1` (stereo not drawn) [Ib-89], the pest or weed control at 0.02 mg in data set [3] (setting [8]) was 80%. In data set [4] (setting [7]), the pest or weed control at 500 g/ha amounted to 100%.
As to `Cc1cc(F)c(/N=C(/c2ccc(Cl)cc2)N2CCC(F)(F)CC2)cc1[S+]([O-])CC(F)(F)F` (stereo not drawn) [Ib-143], the pest or weed control at 500 g/ha in data set [2] is 83%; in data set [4] (setting [7]), 90%.

The record behind these values is patent publication US10051861B2, “N-arylamidine-substituted trifluoroethyl sulfide derivatives as acaricides and insecticides” (BAYER CROPSCIENCE AG, priority 2011, dated 2018).
